Reference: patent US20100267561A1, “HERBICIDAL PYRIDAZINONE DERIVATIVES” (priority 2007, published 2010)

How the values were obtained:
Format in all cases: in vivo
[1] = system: wild mustard (Sinapis arvensis); test: Test C pre-/postemergence plant response; conditions: Preemergence
Source text: (§1) Seeds of plant species selected from annual bluegrass (Poa annua), blackgrass (Alopecurus myosuroides), canola (Brassica rapa), downy bromegrass (Bromus tectorum), green foxtail (Setaria viridis), Italian ryegrass (Lolium multiflorum), canarygrass (Phalaris minor), pigweed (Amaranthus retroflexus), spring barley (Hordeum vulgare), spring wheat (Triticum aestivum), wild mustard (Sinapis arvensis), wild oat (Avena fatua), windgrass (Apera spica-venti), winter barley (Hordeum vulgare), and winter wheat (Triticum aestivum) were planted and treated preemergence with test chemicals formulated in a non-phytotoxic solvent mixture which included a surfactant. At the same time, plants selected from these crop and weed species were treated with postemergence applications of some of the test chemicals formulated in the same manner. Plants ranged in height from 2 to 18 cm (1- to 4-leaf stage) for postemergence treatments.
(§2) Treated plants and controls were maintained in a controlled growth environment for 15 to 25 days after which time all species were compared to controls and visually evaluated. Plant response ratings, summarized in Table C, are based on a scale of 0 to 100 where 0 is no effect and 100 is complete control. A dash (-) response means no test result.

[2] = system: spring barley (Hordeum vulgare); test: Test C pre-/postemergence plant response; conditions: Preemergence
Source text: as §1, §2

[3] = system: canarygrass (Phalaris minor); test: Test C pre-/postemergence plant response; conditions: Preemergence
Source text: as §1, §2

[4] = system: green foxtail (Setaria viridis); test: Test C pre-/postemergence plant response; conditions: Preemergence
Source text: as §1, §2

[5] = system: downy bromegrass (Bromus tectorum); test: Test C pre-/postemergence plant response; conditions: Preemergence
Source text: as §1, §2

[6] = system: blackgrass (Alopecurus myosuroides); test: Test C pre-/postemergence plant response; conditions: Preemergence
Source text: as §1, §2

[7] = system: Italian ryegrass (Lolium multiflorum); test: Test C pre-/postemergence plant response; conditions: Preemergence
Source text: as §1, §2

[8] = system: annual bluegrass (Poa annua); test: Test C pre-/postemergence plant response; conditions: Preemergence
Source text: as §1, §2

[9] = system: wild oat (Avena fatua); test: Test C pre-/postemergence plant response; conditions: Preemergence
Source text: as §1, §2

[10] = system: winter wheat (Triticum aestivum); test: Test C pre-/postemergence plant response; conditions: Preemergence
Source text: as §1, §2

[11] = system: pigweed (Amaranthus retroflexus); test: Test C pre-/postemergence plant response; conditions: Preemergence
Source text: as §1, §2

[12] = system: woolly cupgrass (Eriochloa villosa); test: Test B pre-/postemergence plant response; conditions: Preemergence; for Cupgrass, Woolly plant response rating: scale 0 to 100
Procedure, shortened: (§3)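 Visual scoring from 0 (no effect) to 100 (complete control) against untreated controls was done 13 to 15 days after greenhouse treatment. Chemicals were formulated in a surfactant-containing non-phytotoxic solvent and applied to soil preemergence or to 1- to 4-leaf (2-18 cm) plants postemergence.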

[13] = system: large crabgrass (Digitaria sanguinalis); test: Test B pre-/postemergence plant response; conditions: Preemergence; for Crabgrass, Large plant response rating: scale 0 to 100
Procedure, shortened: as §3

[14] = 8 g ai/ha, scale 0 to 100 (0 no effect, 100 complete control)
[15] = 16 g ai/ha, scale 0 to 100 (0 no effect, 100 complete control)
[16] = 62 g ai/ha, scale 0 to 100, 0 no effect, 100 complete control
[17] = 31 g ai/ha, scale 0 to 100 (0 no effect, 100 complete control)
[18] = 62 g ai/ha, 0 to 100 scale, 0 no effect, 100 complete control

C#CCOC(=O)Oc1cnn(C)c(=O)c1-n1nc(-c2ccc(Cl)cc2)cc1C [Compound 58]
Plant response rating, Mustard, Wild [1, 14]: 0 | Plant response rating, Mustard, Wild [1, 15]: 0 | Plant response rating, Mustard, Wild [1, 16]: 0 | Plant response rating, Barley, Spring [2, 14]: 0 | Plant response rating, Barley, Spring [2, 15]: 0 | Plant response rating, Barley, Spring [2, 17]: 10 | Plant response rating, Barley, Spring [2, 16]: 75 | Plant response rating, Canarygrass [3, 14]: 0 | Plant response rating, Canarygrass [3, 15]: 60 | Plant response rating, Canarygrass [3, 17]: 90 | Plant response rating, Canarygrass [3, 16]: 95 | Plant response rating, Foxtail, Green [4, 14]: 35 | Plant response rating, Foxtail, Green [4, 15]: 98 | Plant response rating, Foxtail, Green [4, 17]: 100 | Plant response rating, Foxtail, Green [4, 16]: 100 | Plant response rating, Bromegrass, Downy [5, 14]: 0 | Plant response rating, Bromegrass, Downy [5, 15]: 15 | Plant response rating, Bromegrass, Downy [5, 17]: 70 | Plant response rating, Bromegrass, Downy [5, 16]: 75 | Plant response rating, Blackgrass [6, 14]: 0 | Plant response rating, Blackgrass [6, 15]: 65 | Plant response rating, Blackgrass [6, 17]: 98 | Plant response rating, Blackgrass [6, 16]: 100 | Plant response rating, Ryegrass, Italian [7, 14]: 25 | Plant response rating, Ryegrass, Italian [7, 15]: 65 | Plant response rating, Ryegrass, Italian [7, 17]: 100 | Plant response rating, Ryegrass, Italian [7, 16]: 100 | Plant response rating, Bluegrass [8, 14]: 0 | Plant response rating, Bluegrass [8, 15]: 0 | Plant response rating, Bluegrass [8, 17]: 0 | Plant response rating, Bluegrass [8, 16]: 0 | Plant response rating, Oat, Wild [9, 14]: 0 | Plant response rating, Oat, Wild [9, 15]: 50 | Plant response rating, Oat, Wild [9, 17]: 65 | Plant response rating, Oat, Wild [9, 16]: 75 | Plant response rating, Wheat, Winter [10, 14]: 0 | Plant response rating, Wheat, Winter [10, 15]: 0 | Plant response rating, Wheat, Winter [10, 17]: 60 | Plant response rating, Wheat, Winter [10, 16]: 80 | Plant response rating, Pigweed [11, 14]: 0 | Plant response rating, Pigweed [11, 16]: 0 | Plant response rating, Cupgrass, Woolly [12, 17]: 100 | Plant response rating, Cupgrass, Woolly [12, 18]: 100 | Cupgrass, Woolly plant response rating ([12]; 8 g ai/ha): 75 | Cupgrass, Woolly plant response rating ([12]; 16 g ai/ha): 80 | Plant response rating, Crabgrass, Large [13, 17]: 90 | Plant response rating, Crabgrass, Large [13, 18]: 100 | Crabgrass, Large plant response rating ([13]; 8 g ai/ha): 50 | Crabgrass, Large plant response rating ([13]; 16 g ai/ha): 75
